Tested on: antibody specific to carbamazepine
Test: Interference from other drugs in the carbamazepine ELISA assay
Assay type: binding, rabbit
Details: chemical tested at 10.0 μg/ml; procedures of Example 4 (ELISA); duplicate
Excerpt: The Carbamazepine ELISA was developed with the antibody generated from Example 3. This assay is a competitive micro-immunoassay for determination of carbamazepine in a fluid sample. Carbamazepine in the fluid sample and carbamazepine derivative linked with the enzyme (HRP)-conjugate compete for the finite sites of the antibody coated on the solid surface of the microwell. If little or no carbamazepine is present in the fluid sample, more enzyme labeled carbamazepine derivative will bind to the antibody on the solid surface. Conversely, if a large or a significant amount of carbamazepine is present in the fluid sample, less enzyme labeled carbamazepine derivative will bind to the antibody, producing less color signal. The absorbance produced is inversely proportional to the amount of carbamazepine in the fluid sample.
Interference from other drugs was tested using 30 frequently used chemicals and medicines, at concentrations of 10.0 μg/ml.
The samples were tested in duplicate, following the procedures used in Example 4. All 30 samples produced a negative test result. Thus, the immunoassay of the present disclosure is specific to carbamazepine.

Compound	Equivalent Carbamazepine Conc.
CN[C@@H](C)[C@H](O)c1ccccc1 [(L)-Ephedrine]	<0.1 µg/mL
CN1C(=O)CC[C@H]1c1cccnc1 [(−)-Cotinine]	<0.1 µg/mL
CC(=O)Oc1ccccc1C(=O)O [Acetylsalicylic Acid]	<0.1 µg/mL
CCC1(CCC(C)C)C(=O)NC(=O)NC1=O [Amobarbital]	<0.1 µg/mL
CC1(C)S[C@@H]2[C@H](NC(=O)[C@H](N)c3ccccc3)C(=O)N2[C@H]1C(=O)O [Ampicillin]	<0.1 µg/mL
Cn1c(=O)c2c(ncn2C)n(C)c1=O [Caffeine]	<0.1 µg/mL
CN(C)CCCN1c2ccccc2Sc2ccc(Cl)cc21 [Chlorpromazine]	<0.1 µg/mL
O=C(O)C1N=C(c2ccccc2)c2cc(Cl)ccc2NC1=O (centres unmarked) [Clorazepate]	<0.1 µg/mL
CN1C(=O)CN=C(c2ccccc2)c2cc(Cl)ccc21 [Diazepam]	<0.1 µg/mL
COC(=O)[C@@H]1[C@H]2CC[C@@H](C[C@@H]1O)N2C [Ecgonine Methyl Ester]	<0.1 µg/mL
CC(C(=O)O)c1cccc(Oc2ccccc2)c1 (centres unmarked) [Fenoprofen]	<0.1 µg/mL
Cc1ccc(C)c(OCCCC(C)(C)C(=O)O)c1 [Gemfibrozil]	<0.1 µg/mL
O=C(O)c1cc(O)ccc1O [Gentisic Acid]	<0.1 µg/mL
COc1ccc2c3c1O[C@H]1C(=O)CC[C@H]4[C@@H](C2)N(C)CC[C@]314 [Hydrocodone]	<0.1 µg/mL
CC(C)Cc1ccc(C(C)C(=O)O)cc1 (centres unmarked) [Ibuprofen]	<0.1 µg/mL
CN(C)CCCN1c2ccccc2CCc2ccccc21 [Imipramine]	<0.1 µg/mL
CCN(CC)CC(=O)Nc1c(C)cccc1C [Lidocaine]	<0.1 µg/mL
COc1ccc2cc([C@H](C)C(=O)O)ccc2c1 [Naproxen]	<0.1 µg/mL
NC(=O)c1cccnc1 [Niacinamide]	<0.1 µg/mL
CNC[C@H](O)c1cccc(O)c1 [Phenylephrine]	<0.1 µg/mL
CC(N)C(O)c1ccccc1 (centres unmarked) [Phenylpropanolamine]	<0.1 µg/mL
CCN(CC)CCNC(=O)c1ccc(N)cc1 [Procainamide]	<0.1 µg/mL
CCN(CC)CCOC(=O)c1ccc(N)cc1 [Procaine]	<0.1 µg/mL
C=C[C@H]1C[N@@]2CC[C@H]1C[C@@H]2[C@@H](O)c1ccnc2ccc(OC)cc12 [Quinidine]	<0.1 µg/mL
Cc1cc(CC(=O)O)n(C)c1C(=O)c1ccc(Cl)cc1 [Zomepirac]	<0.1 µg/mL
NCCc1ccccc1 [beta-Phenylethylamine]	<0.1 µg/mL
CN[C@@H](C)Cc1ccccc1 [d-Methamphetamine]	<0.1 µg/mL
Ecgonine	<0.1 µg/mL
Penicillin	<0.1 µg/mL

— patent US8569000B2, “Immunoassays using antibodies specific to carbamazepine” (priority 2011, dated 2013)
